Data as given in US10836758B2, “Acyl sulfonamide NaV1.7 inhibitors” (BRISTOL-MYERS SQUIBB COMPANY, priority 2016, dated 2020).

These molecules were tested against NaV1.7 (Homo sapiens (Human), UniProt Q15858) (assay: NaV1.7 IC50 of Table 1 (IonWorks Barracuda population patch clamp or ligand binding assay; table does not say which)). Conditions: HEK 293 cells expressing NaV1.7.
NaV1.7, sequence (Q15858 whole entry): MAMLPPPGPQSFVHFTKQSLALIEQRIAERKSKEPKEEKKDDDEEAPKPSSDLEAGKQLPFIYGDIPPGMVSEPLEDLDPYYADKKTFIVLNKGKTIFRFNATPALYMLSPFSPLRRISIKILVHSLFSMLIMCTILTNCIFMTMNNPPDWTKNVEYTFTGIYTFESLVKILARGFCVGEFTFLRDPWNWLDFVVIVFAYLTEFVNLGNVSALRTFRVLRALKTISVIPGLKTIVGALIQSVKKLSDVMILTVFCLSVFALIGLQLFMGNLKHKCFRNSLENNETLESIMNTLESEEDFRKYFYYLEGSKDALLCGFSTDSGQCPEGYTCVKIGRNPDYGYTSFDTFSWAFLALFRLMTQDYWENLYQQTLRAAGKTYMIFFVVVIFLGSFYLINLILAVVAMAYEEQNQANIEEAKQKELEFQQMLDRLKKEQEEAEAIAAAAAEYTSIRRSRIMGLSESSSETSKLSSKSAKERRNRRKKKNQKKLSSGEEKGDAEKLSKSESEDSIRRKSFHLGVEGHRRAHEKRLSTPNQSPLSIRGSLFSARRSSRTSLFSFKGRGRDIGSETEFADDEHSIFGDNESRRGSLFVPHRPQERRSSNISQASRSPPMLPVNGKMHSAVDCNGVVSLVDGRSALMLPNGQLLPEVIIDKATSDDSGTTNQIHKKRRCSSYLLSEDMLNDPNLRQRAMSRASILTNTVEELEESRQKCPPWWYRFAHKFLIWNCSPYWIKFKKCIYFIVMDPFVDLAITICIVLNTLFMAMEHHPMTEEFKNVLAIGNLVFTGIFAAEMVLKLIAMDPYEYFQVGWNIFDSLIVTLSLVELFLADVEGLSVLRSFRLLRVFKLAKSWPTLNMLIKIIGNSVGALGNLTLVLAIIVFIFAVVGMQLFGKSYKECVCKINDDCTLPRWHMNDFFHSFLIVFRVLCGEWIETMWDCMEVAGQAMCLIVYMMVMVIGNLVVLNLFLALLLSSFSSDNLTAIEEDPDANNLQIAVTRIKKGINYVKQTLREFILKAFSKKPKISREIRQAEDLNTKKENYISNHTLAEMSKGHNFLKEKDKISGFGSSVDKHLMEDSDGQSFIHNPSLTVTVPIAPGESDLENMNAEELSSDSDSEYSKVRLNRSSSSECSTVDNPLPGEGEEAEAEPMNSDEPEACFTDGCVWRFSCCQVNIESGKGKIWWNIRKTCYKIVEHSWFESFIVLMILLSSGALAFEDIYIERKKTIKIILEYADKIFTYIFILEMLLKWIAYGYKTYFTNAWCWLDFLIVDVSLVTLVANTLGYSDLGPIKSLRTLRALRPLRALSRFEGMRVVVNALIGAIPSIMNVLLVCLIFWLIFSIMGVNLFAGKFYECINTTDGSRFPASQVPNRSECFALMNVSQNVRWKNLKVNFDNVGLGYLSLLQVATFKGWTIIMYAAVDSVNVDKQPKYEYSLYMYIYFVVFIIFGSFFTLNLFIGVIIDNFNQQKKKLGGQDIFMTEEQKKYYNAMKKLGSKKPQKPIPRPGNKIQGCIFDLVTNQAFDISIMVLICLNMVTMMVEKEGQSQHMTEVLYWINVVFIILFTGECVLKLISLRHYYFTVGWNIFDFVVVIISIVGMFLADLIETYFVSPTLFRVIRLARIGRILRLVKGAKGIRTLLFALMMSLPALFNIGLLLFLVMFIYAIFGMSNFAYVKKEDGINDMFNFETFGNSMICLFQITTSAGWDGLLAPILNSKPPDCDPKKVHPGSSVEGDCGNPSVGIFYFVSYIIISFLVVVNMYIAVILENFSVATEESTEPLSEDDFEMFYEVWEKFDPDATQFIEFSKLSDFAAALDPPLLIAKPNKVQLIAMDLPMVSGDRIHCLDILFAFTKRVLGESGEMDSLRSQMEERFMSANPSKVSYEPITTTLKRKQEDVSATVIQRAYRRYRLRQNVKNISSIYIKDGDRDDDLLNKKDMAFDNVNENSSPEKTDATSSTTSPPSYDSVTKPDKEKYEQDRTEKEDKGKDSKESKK
Format: cell-based
Procedure: Ion Works Barracuda population patch clamp (PPC). PPC measurements were performed using an IonWorks Barracuda instrument (Molecular Devices Corporation, Union City, Calif.) using either PatchPlate™ PPC substrates (Molecular Devices Corporation) with 64 apertures per well. The ability to average currents from 64 recordings from each well greatly improves data consistency and recording success rates in the measurement of NaV1.7 mediated ionic currents. Calculated leak current was digitally subtracted from the total cell NaV1.7 current for each sample point acquired.
NaV1.7 currents were elicited by a voltage clamp protocol designed to bias the NaV1.7 channels to their inactivated state as follows. […] This was followed by a relatively brief hyperpolarization to −100 mv for 300 ms, then a 20 msec test pulse to −20 mV to elicit the NaV1.7 current used to measure the pharmacology of all test compounds. Compounds were incubated for 600 sec between the pre- and post-compound reads. […] The same solutions were used to record NaV1.5 currents, with the following voltage clamp protocol. NaV1.5 currents were elicited by a voltage clamp protocol designed to bias the NaV1.5 channels to their inactivated state as follows. […] This was followed by a relatively brief hyperpolarization to −100 mv for 30 ms, then a 20 msec test pulse to −10 mV to elicit the NaV1.5 current used to measure the pharmacology of all test compounds.
HEK 293 cells expressing NaV1.7 and NaV1.5 channels, were used (Essen Biosciences, Ann Arbor, Mich.). […] Cells were grown to 70% to 90% confluence in a flask and removed from the incubator (37° C., 5% CO2) 1 to 3 days after plating. Growth medium was aspirated from the culture flasks. […] Next a total of 2 mL TrypLE (Gibco) solution was added, and the flasks containing cells were sat for 3 min at RT, after which, the cells became visibly rounded and were easily dislodged from the bottom of the flask with a few brief taps on a solid surface. A total of 8 mL of media was added to the flask to inactivate the TrypLE, and the mixture was centrifuged at 910 rpm for 4 min. The cell supernatant was decanted, and the cell pellets were resuspended in 5-6 mL of external solution followed by gentle triturations using a 10 ml pipette, and transferred to a 15 ml conical tube and immediately brought to the IW Barracuda instrument.
Peak membrane currents were analyzed with IW Barracuda software and exported to Excel for further analysis. Concentration response curve fitting was performed with BMS in-house software. IC50 values were obtained by fits of the Hill equation to the average percent inhibition data plotted versus compound concentration. […] Results are reported in Table 1 (NaV1.7 Barra IC50 in nM and NaV1.5 Barra IC50 in nM).
hNaV1.7 binding affinities were determined with a filtration binding assay using purified membranes from HEK293 cells stably expressing hNaV1.7. HEK293 cells from a 10-stack cell culture flask (approximately 10^10 cells) were dissociated, frozen, and stored at −80° C. To prepare membranes, the frozen cell pellet was thawed and suspended in 6 ml hypotonic lysis buffer (50 mM HEPES, 0.1% mammalian protease inhibitor cocktail). 1 ml of resuspended cells was added to an additional 6 ml of lysis buffer and homogenized with 30 strokes of a tight pestle in a glass homogenizer. Homogenate was centrifuged at 1000×g for 10 minutes at 4° C. and the resulting supernatant was further centrifuged at 38,500×g for 60 minutes at 4° C. The resulting pellet was resuspended in binding buffer (50 mM HEPES, 130 mM NaCl, 5.4 mM KCl, 0.8 mM MgCl2, 5 mM glucose, pH 7.4) and needle homogenized with a 25 gauge needle. Protein concentration was determined with a BCA protein assay. Purified membranes were aliquoted, flash frozen in an ethyl alcohol dry ice bath, and stored at −80° C.
`CC1(CCOc2cc(F)c(S(=O)(=O)Nc3ncns3)cc2F)CCC(N)CC1` (single isomer, unassigned) [Example 57, 4-(2-((1s,4s)-4-Amino-1-methylcyclohexyl)ethoxy)-2,5-difluoro-N-(1,2,4-thiadiazol-5-yl)benzenesulfonamide] was tested, and the IC50 was 383 nM. Work on `COCCN1CCCC1CNc1cc(F)c(S(=O)(=O)Nc2nccs2)cc1Cl` (centres unmarked) [Example 68, 5-chloro-2-fluoro-4-(((1-(2-methoxyethyl)pyrrolidin-2-yl)methyl)amino)-N-(thiazol-2-yl)benzenesulfonamide] yielded an IC50 of 138 nM. `CC1CC(C)(C)C(CNc2cc(F)c(S(=O)(=O)Nc3nccs3)cc2Cl)C1N` (centres unmarked) [Example 30, 4-(((5-Amino-2,2,4-trimethylcyclopentyl)methyl)amino)-5-chloro-2-fluoro-N-(thiazol-2-yl)benzenesulfonamide] was tested, and the IC50 was 12 nM. With `O=S(=O)(Nc1nccs1)c1cc(Cl)c(N2CCC(CO)C2)cc1F` (centres unmarked) [Example 70, 5-chloro-2-fluoro-4-(3-(hydroxymethyl)pyrrolidin-1-yl)-N-(thiazol-2-yl)benzenesulfonamide] the IC50 was 806 nM. `CC1(CCOc2cc(F)c(S(=O)(=O)Nc3ncns3)cc2F)CCC(N)CC1` (single isomer, unassigned) [Example 56, 4-(2-((1s,4s)-4-Amino-1-methylcyclohexyl)ethoxy)-2,5-difluoro-N-(1,2,4-thiadiazol-5-yl)benzenesulfonamide] was tested, and the IC50 was 78 nM. Work on `O=S(=O)(Nc1nccs1)c1cc(Cl)c(NCC2(CN3CCOCC3)CC2)cc1F` [Example 8, 5-Chloro-2-fluoro-4-(((1-(morpholinomethyl)cyclopropyl)methyl)amino)-N-(thiazol-2-yl)benzenesulfonamide] yielded an IC50 of 181 nM. For `O=S(=O)(Nc1nccs1)c1cc(Cl)c(N2CCCC(C3CCNCC3)C2)cc1F` (centres unmarked) [Example 66, 4-([3,4′-bipiperidin]-1-yl)-5-chloro-2-fluoro-N-(thiazol-2-yl)benzenesulfonamide], the IC50 was 291 nM. Molecule `O=S(=O)(Nc1ncns1)c1cc(F)c(OCCC2(c3ccc(Cl)c(F)c3)CCNCC2)cc1F` [Example 46, 4-(2-(4-(4-Chloro-3-fluorophenyl)piperidin-4-yl)ethoxy)-2,5-difluoro-N-(1,2,4-thiadiazol-5-yl)benzenesulfonamide] has an IC50 of 110 nM. `NC1CCC(CCOc2cc(F)c(S(=O)(=O)Nc3ncns3)cc2F)(c2ccccc2)CC1` (single isomer, unassigned) [Example 49, 4-(2-(4-amino-1-phenylcyclohexyl)ethoxy)-2,5-difluoro-N-(1,2,4-thiadiazol-5-yl)benzenesulfonamide] showed an IC50 of 15 nM. Molecule `N[C@H]1CC[C@@H](CNc2cc(F)c(S(=O)(=O)Nc3ncns3)cc2Cl)CC1` [Example 19, 4-((((1s,4s)-4-Aminocyclohexyl)methyl)amino)-5-chloro-2-fluoro-N-(1,2,4-thiadiazol-5-yl)benzenesulfonamide] has an IC50 of 16 nM. Work on `O=S(=O)(Nc1nccs1)c1cc(Cl)c(N2CCC3CCNCC3C2)cc1F` (centres unmarked) [Example 67, 5-chloro-2-fluoro-4-(octahydro-2,7-naphthyridin-2(1H)-yl)-N-(thiazol-2-yl)benzenesulfonamide] yielded an IC50 of 267 nM. Molecule `O=S(=O)(Nc1ncns1)c1cc(F)c(OCC2(Cc3ccc(Cl)c(F)c3)CCC(O)CC2)cc1F` (centres unmarked) [Example 64, 4-((1-(4-chloro-3-fluorobenzyl)-4-hydroxycyclohexyl)methoxy)-2,5-difluoro-N-(1,2,4-thiadiazol-5-yl)benzenesulfonamide] has an IC50 of 285 nM. `O=S(=O)(Nc1ncns1)c1cc(Cl)c(OCCC2(c3ccc(Cl)cc3)CCNCC2)cc1F` [Example 45, 5-Chloro-4-(2-(4-(4-chlorophenyl)piperidin-4-yl)ethoxy)-2-fluoro-N-(1,2,4-thiadiazol-5-yl)benzenesulfonamide] showed an IC50 of 39 nM. Work on `CN1C(C)(C)CC(Nc2cc(F)c(S(=O)(=O)Nc3nccs3)cc2Cl)CC1(C)C` [Example 42, 5-Chloro-2-fluoro-4-((1,2,2,6,6-pentamethylpiperidin-4-yl)amino)-N-(thiazol-2-yl)benzenesulfonamide] yielded an IC50 of 286 nM. In the case of `NC1CCCC(Nc2cc(F)c(S(=O)(=O)Nc3nccs3)cc2Cl)C1` (centres unmarked) [Example 28, 4-((3-Aminocyclohexyl)amino)-5-chloro-2-fluoro-N-(thiazol-2-yl)benzenesulfonamide], the IC50 is reported as 27 nM. In the case of `O=S(=O)(Nc1nccs1)c1cc(Cl)c(NCC2CNC2)cc1F` [Example 15, 4-((Azetidin-3-ylmethyl)amino)-5-chloro-2-fluoro-N-(thiazol-2-yl)benzenesulfonamide], the IC50 is reported as 394 nM. With `NC1CCCC1CNc1cc(F)c(S(=O)(=O)Nc2nccs2)cc1Cl` (centres unmarked) [Example 31, 4-(((2-Aminocyclopentyl)methyl)amino)-5-chloro-2-fluoro-N-(thiazol-2-yl)benzenesulfonamide] the IC50 was 12 nM. `CN1CCC(CCNc2cc(F)c(S(=O)(=O)Nc3nccs3)cc2Cl)CC1` [Example 5, 5-Chloro-2-fluoro-4-((2-(1-methylpiperidin-4-yl)ethyl)amino)-N-(thiazol-2-yl)benzenesulfonamide] showed an IC50 of 70 nM. `O=S(=O)(Nc1ncns1)c1cc(F)c(OCCC2(c3ccc(Cl)cc3)CCNCC2)cc1F` [Example 44, 4-(2-(4-(4-Chlorophenyl)piperidin-4-yl)ethoxy)-2,5-difluoro-N-(1,2,4-thiadiazol-5-yl)benzenesulfonamide] was tested, and the IC50 was 124 nM. For `NC1CCC(COc2cc(F)c(S(=O)(=O)Nc3ncns3)cc2F)(Cc2ccc(Cl)c(F)c2)CC1` (single isomer, unassigned) [Example 61, 4-((4-amino-1-(4-chloro-3-fluorobenzyl)cyclohexyl)methoxy)-2,5-difluoro-N-(1,2,4-thiadiazol-5-yl)benzenesulfonamide], the IC50 was 52 nM.
